Measured values published in ChEMBL document CHEMBL1201862, “PubChem BioAssay data set” (2004).
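Protocol summary: plate cells (96-well), add compound at 5 concentrations, incubate 48 h, interpolate endpoints linearly. Abbreviation: GI50, concentration required for 50% inhibition of growth.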 Activity calls are given as the source filed them. Cut-off read from the data, not from the text of the source: active = GI50 up to about 1.1 µM and inactive = higher. Where a SMILES comes first, the peptide text is derived from it. The star is where a group is joined. Boc = CC(C)(C)OC(=O)*

Key:
Experiment in all cases: inhibition of tumour cell growth, NCI panel, 48 h
OVCAR-3 = test system: OVCAR-3
KM12 = test system: KM12
U-251 = test system: U-251
NCI-H226 = test system: NCI-H226
SK-MEL-28 = test system: SK-MEL-28
NCI/ADR-RES = test system: NCI/ADR-RES
HOP-62 = test system: HOP-62
Hs-578T = test system: Hs-578T
COLO 205 = test system: COLO 205
A549 = test system: A549
UACC-62 = test system: UACC-62
BT-549 = test system: BT-549
SK-OV-3 = test system: SK-OV-3
UACC-257 = test system: UACC-257
SN12C = test system: SN12C
MDA-MB-435 = test system: MDA-MB-435
HCC 2998 = test system: HCC 2998
SF-539 = test system: SF-539
DU-145 = test system: DU-145

Row | SMILES | GI50 (OVCAR-3) | GI50 (KM12) | GI50 (U-251) | GI50 (NCI-H226) | GI50 (SK-MEL-28) | GI50 (NCI/ADR-RES) | GI50 (HOP-62) | GI50 (Hs-578T) | GI50 (COLO 205) | GI50 (A549) | GI50 (UACC-62) | GI50 (BT-549) | GI50 (SK-OV-3) | GI50 (UACC-257) | GI50 (SN12C) | GI50 (MDA-MB-435) | GI50 (HCC 2998) | GI50 (SF-539) | GI50 (DU-145)
1 | CC(NC(=O)C(NC(=O)OC(C)(C)C)C(C)C)C(=O)NCC(=O)O (stereo not drawn) (Boc-Val-Ala-Gly-OH; configuration not given here) | > 100 µM (inactive) | > 100 µM (inactive) | > 100 µM (inactive) | > 10 µM (inactive) | > 100 µM (inactive) | > 100 µM (inactive) | > 100 µM (inactive) | > 100 µM (inactive) | > 100 µM (inactive) | > 100 µM (inactive) | > 100 µM (inactive) | > 100 µM (inactive) | > 100 µM (inactive) | > 100 µM (inactive) | > 100 µM (inactive) | > 100 µM (inactive) | > 100 µM (inactive) | > 100 µM (inactive) | > 100 µM (inactive)
2 | COc1ccc(/C=C/c2cnccn2)cc1OC | > 10 µM (inactive) | > 10 µM (inactive) | > 10 µM (inactive) | > 10 µM (inactive) | > 10 µM (inactive) | > 10 µM (inactive) | > 10 µM (inactive) | > 10 µM (inactive) | > 10 µM (inactive) | > 10 µM (inactive) | > 10 µM (inactive) | > 10 µM (inactive) | > 10 µM (inactive) | > 10 µM (inactive) | > 10 µM (inactive) | > 10 µM (inactive) | > 10 µM (inactive) | > 10 µM (inactive) | > 10 µM (inactive)
3 | Nc1nc(-c2ccccc2)nc2c1[n+]([O-])c1ccccc1[n+]2[O-] | > 100 µM (inactive) | > 100 µM (inactive) | > 100 µM (inactive) | > 100 µM (inactive) | > 100 µM (inactive) | > 100 µM (inactive) | > 100 µM (inactive) | > 100 µM (inactive) | > 100 µM (inactive) | > 100 µM (inactive) | > 100 µM (inactive) | > 100 µM (inactive) | > 100 µM (inactive) | > 100 µM (inactive) | > 100 µM (inactive) | > 100 µM (inactive) | > 100 µM (inactive) | > 100 µM (inactive) | > 100 µM (inactive)
4 | COC(=O)c1c2n(c3ccccc13)C[C@H]1OC(C)(C)O[C@@H]21 | > 100 µM (inactive) | > 43.8 µM (inactive) | > 100 µM (inactive) | > 100 µM (inactive) | > 100 µM (inactive) | > 100 µM (inactive) | > 100 µM (inactive) | > 100 µM (inactive) | > 100 µM (inactive) | > 100 µM (inactive) | > 100 µM (inactive) | > 100 µM (inactive) | > 100 µM (inactive) | > 100 µM (inactive) | > 100 µM (inactive) | > 100 µM (inactive) | > 100 µM (inactive) | > 100 µM (inactive) | > 100 µM (inactive)
5 | CC(C)(C)[Si](C)(C)OC1CCOC1(O)c1ccccn1 (stereo unspecified) | > 100 µM (inactive) | > 100 µM (inactive) | 39.6 µM (inactive) | > 100 µM (inactive) | > 100 µM (inactive) | > 100 µM (inactive) | > 100 µM (inactive) | > 100 µM (inactive) | > 100 µM (inactive) | > 100 µM (inactive) | > 100 µM (inactive) | > 100 µM (inactive) | > 100 µM (inactive) | > 100 µM (inactive) | > 100 µM (inactive) | > 100 µM (inactive) | > 100 µM (inactive) | > 100 µM (inactive) | > 100 µM (inactive)
6 | C[C@]12C=CC(=O)C=C1CC[C@@H]1[C@@H]2C(=O)C[C@@]2(C)[C@H]1CC[C@]2(O)C(=O)CO [PREDNISONE] | > 100 µM (inactive) | > 100 µM (inactive) | > 100 µM (inactive) | > 100 µM (inactive) | > 100 µM (inactive) | > 100 µM (inactive) | > 100 µM (inactive) | > 100 µM (inactive) | > 100 µM (inactive) | > 100 µM (inactive) | > 100 µM (inactive) | > 100 µM (inactive) | > 100 µM (inactive) | > 100 µM (inactive) | > 100 µM (inactive) | > 100 µM (inactive) | > 100 µM (inactive) | > 100 µM (inactive) | > 100 µM (inactive)
7 | CCOC(=O)/C=C(/C(=O)OCC)n1ccc(=O)n(Cc2cnnn2CCCCOC(C)=O)c1=O | > 100 µM (inactive) | > 100 µM (inactive) | > 100 µM (inactive) | > 100 µM (inactive) | > 100 µM (inactive) | > 100 µM (inactive) | > 100 µM (inactive) | > 100 µM (inactive) | 19.1 µM (inactive) | > 100 µM (inactive) | > 100 µM (inactive) | 60.3 µM (inactive) | > 100 µM (inactive) | > 100 µM (inactive) | > 100 µM (inactive) | > 100 µM (inactive) | > 100 µM (inactive) | 36.6 µM (inactive) | > 100 µM (inactive)
8 | COc1cc2cc(C(=O)N3CC(CCl)c4c3cc([N+](C)(C)Cc3ccc([N+](=O)[O-])n3C)c3ccccc43)[nH]c2c(OC)c1OC (stereo unspecified) | 4.06 µM (inactive) | 2.14 µM (inactive) | 2.33 µM (inactive) | 1.87 µM (inactive) | 2.33 µM (inactive) | 0.849 µM (active) | 4.02 µM (inactive) | 6.76 µM (inactive) | 0.989 µM (active) | 0.074 µM (active) | 1.12 µM (inactive) | 2.51 µM (inactive) | 3.81 µM (inactive) | 2.06 µM (inactive) | 4.54 µM (inactive) | 3.79 µM (inactive) | 0.3 µM (active) | 2.02 µM (inactive) | 0.935 µM (active)
9 | Cc1cc(NC2=CC(=O)C(=O)c3ccccc32)no1 | 3.85 µM (inactive) | 12.6 µM (inactive) | 3.92 µM (inactive) | 17.6 µM (inactive) | 13.5 µM (inactive) | 3.87 µM (inactive) | 17.6 µM (inactive) | 9.4 µM (inactive) | 16.1 µM (inactive) | 5 µM (inactive) | 3.23 µM (inactive) | 5.53 µM (inactive) | 19.4 µM (inactive) | 6.92 µM (inactive) | 2.88 µM (inactive) | 1.88 µM (inactive) | 20.7 µM (inactive) | 6.4 µM (inactive) | 16.4 µM (inactive)
10 | Cc1cnc2nc(-c3sccc3C)cc(O)c2c1 | 3.13 µM (inactive) | 3.1 µM (inactive) | 4.86 µM (inactive) | 4.14 µM (inactive) | 23 µM (inactive) | 2.31 µM (inactive) | 5.08 µM (inactive) | 2.3 µM (inactive) | 3.21 µM (inactive) | 3.96 µM (inactive) | 2.59 µM (inactive) | 9.42 µM (inactive) | 4.03 µM (inactive) | 8.38 µM (inactive) | 10.2 µM (inactive) | 0.342 µM (active) | 6.07 µM (inactive) | 5.81 µM (inactive) | 4.74 µM (inactive)
11 | O=C1c2ccccc2CN1c1ccc(OCCN2CCCCC2)cc1 | > 10 µM (inactive) | > 10 µM (inactive) | > 10 µM (inactive) | > 10 µM (inactive) | > 10 µM (inactive) | > 10 µM (inactive) | > 10 µM (inactive) | > 10 µM (inactive) | > 10 µM (inactive) | > 10 µM (inactive) | > 10 µM (inactive) | > 10 µM (inactive) | > 10 µM (inactive) | > 10 µM (inactive) | > 10 µM (inactive) | > 10 µM (inactive) | > 10 µM (inactive) | > 10 µM (inactive) | > 10 µM (inactive)
12 | COc1cc(C2c3cc4c(cc3OC(N3CCCCC3)C2C)OCO4)cc(OC)c1OC (stereo unspecified) | 1.9 µM (inactive) | 2.88 µM (inactive) | 3.2 µM (inactive) | 3.39 µM (inactive) | 10.5 µM (inactive) | 3.17 µM (inactive) | 2.85 µM (inactive) | 2.09 µM (inactive) | 3.02 µM (inactive) | 4.04 µM (inactive) | 3.53 µM (inactive) | 18.9 µM (inactive) | 2.77 µM (inactive) | 12.3 µM (inactive) | 6.07 µM (inactive) | 0.67 µM (active) | 2.9 µM (inactive) | 2.2 µM (inactive) | 3.49 µM (inactive)
13 | Oc1cc(-c2ccccc2)nc2c(S)cccc12 | > 100 µM (inactive) | > 100 µM (inactive) | > 100 µM (inactive) | 17.2 µM (inactive) | > 100 µM (inactive) | > 100 µM (inactive) | > 100 µM (inactive) | > 100 µM (inactive) | > 100 µM (inactive) | > 100 µM (inactive) | > 100 µM (inactive) | > 100 µM (inactive) | > 100 µM (inactive) | > 100 µM (inactive) | > 100 µM (inactive) | > 100 µM (inactive) | > 100 µM (inactive) | > 100 µM (inactive) | > 100 µM (inactive)
14 | COc1cc2cc(C(=O)N3CC(CCl)c4ccccc43)[nH]c2c(OC)c1OC (stereo unspecified) | > 100 µM (inactive) | 23.5 µM (inactive) | > 69.2 µM (inactive) | > 100 µM (inactive) | > 100 µM (inactive) | 34.8 µM (inactive) | > 56.2 µM (inactive) | > 100 µM (inactive) | 33.8 µM (inactive) | 47.1 µM (inactive) | 55.5 µM (inactive) | 28.6 µM (inactive) | > 100 µM (inactive) | 99.3 µM (inactive) | 5.6 µM (inactive) | 19.2 µM (inactive) | 17.2 µM (inactive) | > 100 µM (inactive) | 62.1 µM (inactive)
